Data as given in patent US7696251B2, “Method for inhibiting neuronal cell death induced by oxidative glutamate toxicity” (Incorporated National University Iwate University, priority 2007, dated 2010).
Like-named read-outs stand apart in the source and are kept apart here.

Tests used:
[1] = test system: HT22 cells; test: Oxidative glutamate toxicity in HT22 cells, MTT assay; format: cell-based, mouse; conditions: for IC50: Mus musculus, read-out: concentration of half inhibition (IC50) of oxidative glutamate toxicity
Experimental: (§1) DPPD and its derivatives, shown in FIG. 1, were obtained from Ouchi Shinko Chemical Industrial (Tokyo, Japan). The compounds were dissolved in dimethyl sulfoxide (DMSO). The final concentration of DMSO in the culture medium was 0.1%. TNFα, actinomycin D (AcD), XA, XO, glutamate and H2O2 were purchased from Sigma (St. Louis, Mo., USA). HT22 cells were cultured and MTT assays were performed as described previously. Experiments presented here were repeated at least 3 times with 4 samples for each determination. The data are presented as the mean ±SD (for in vitro experiments). In order to examine the neuroprotective effects of DPPD, we employed the following 4 death-inducing agents: 1) glutamate (oxidative stress, transcription-dependent), 2) TNFα (receptor-mediated apoptosis, transcription-independent), 3) H2O2 (oxidative stress, transcription-independent) and 4) XA+XO (oxidative stress, transcription-independent). In FIG. 1, squares, DPPD; circles, D1; triangles, D2. […] HT22 cells were seeded into 24-well plates at a density of 4×10^4 cells/cm^2. After a 5-hr incubation, various concentrations of the compounds were added. One hour later, 5 mM of glutamate was added to the cultures, and 20 h thereafter, the cells were subjected to the MTT assay. The values, which represent the percentage of the control MTT activity, are means ±S.D.s (n=4).
In order to determine whether the inhibition was substantially specific to cell death by oxidative glutamate toxicity, the effects of these compounds on the cell death induced by various stimuli were examined. Adverting to FIGS. 2A, 2B, 2C and 2D, 2HT22 cells were seeded into 24-well plates at a density of 4×10^4 cells/cm^2. After a 5-hr incubation, various concentrations of DPPD were added. One hour later, the cells were treated for 20 h with glutamate (A), TNFα in the presence of 0.1 μg/ml AcD (B), H2O2 (C) and XO in the presence of 0.1 mg/ml of XA (D) and then were subjected to the MTT assay. The values, which represent the percentage of the control MTT activity, are means ±S.D.s (n=4).

[2] = test system: HT22 cells; test: XA+XO-induced cell death of HT22 cells, MTT assay; format: cell-based, mouse; conditions: 15 or 30 mU/ml XO with 0.1 mg/ml XA, 20 h, MTT (FIG. 2D)
Experimental: as §1, with “(n=4). […]” for “(n=4).”

[3] = test system: HT22 cells; test: TNFα-induced cell death of HT22 cells (with AcD), MTT assay; format: cell-based, mouse; conditions: 0.1 or 1.0 ng/ml TNFα with 0.1 μg/ml AcD, 20 h, MTT (FIG. 2B)
Experimental: as §1, with “(n=4). […]” for “(n=4).”

[4] = test system: PC12 cells; conditions: DPPD at μM concentrations; associated with decrease in intracellular ROS levels [13]; cited from earlier work
[5] = test system: HT22 cells; test: H2O2-induced cell death of HT22 cells, MTT assay; format: cell-based, mouse; conditions: 30 or 50 μM H2O2, 20 h, MTT (FIG. 2C)
Experimental: as §1, with “(n=4). […]” for “(n=4).”

[6] = HT-22, HT22 cells, 5 mM glutamate, 20 h, MTT assay

| SMILES | IC50 [1, 6] [nM] | IC50 ([1]; HT-22, 20 h) [nM] | also measured |
| --- | --- | --- | --- |
| Nc1ccccc1 [D4] | 94000 |  |  |
| Nc1ccc(N)cc1 [D3] |  | 879 |  |
| c1ccc(Nc2ccc(Nc3ccccc3)cc2)cc1 [DPPD, N,N′-Diphenyl-p-phenylenediamine] |  | 7.7 | protection against XA+XO-induced cell death [2]: did not substantially protect; protection against TNFα-induced neuronal death [3]: substantially ineffective; protection of PC12 cells against lipid peroxide [4]: protected; protection against death induced by glutamate ([1]; DPPD at 1-10 nM, 5 or 10 mM glutamate, 20 h, MTT (FIG. 2A)): almost completely blocked; protection against H2O2-induced cell death [5]: did not substantially protect |
| Nc1ccc(Nc2ccccc2)cc1 [D2] | 26 |  |  |
| CC(C)Nc1ccc(Nc2ccccc2)cc1 [D1] |  | 5.4 |  |
